The values that follow come from article PMC10045663, “Synthesis, In Vitro Biological Evaluation of Antiproliferative and Neuroprotective Effects and In Silico Studies of Novel 16E-Arylidene-5α,6α-epoxyepiandrosterone Derivatives” (Biomedicines, 2023).

What all share (type): cell-based
The test system of series [1] is MCF-7 cells. The series is described as follows: Nearest neighbor distance analysis with ImageJ. The conditions noted are these: MCF-7, 1 and 10 µM, 48 h. From the text:
The nuclear measurements were achieved by converting 16-bit photomicrographs of Hoechst 33342-stained nuclei in different studied conditions into 8-bit images. Then, these imagens were autothresholded to binary photos using the default “Make binary” function of ImageJ (v. 1.49) software (NIH Image, Bethesda, MD, USA). Cell nuclei that are touching were separated and fragments were discarded based on area through “Analyze Particle” function. This function also provides several other information, such as nuclear area (NA), circumference, and form factor [26]. Furthermore, the “Nearest Neighbor Distance” (NND) was determined. This function allows measuring the distance between each cell nucleus and the nearest ones, providing information about cell distribution.

Series [2] has as its system MCF-7 cells. The series is described as follows: PI incorporation (propidium iodide staining). The conditions noted are these: 48 h. The protocol:
After 48 h of being seeded at the same conditions explained in the previous (Section 2.2.4), MCF-7 cells were treated with the steroidal derivatives 19 and 5-FU at 1 and 10 µM and maintained in culture for 48 h. Untreated cells were also used as a negative control. Subsequently, cells were incubated with 20 µL/per well of a propidium iodide solution (PI; 1 mg/mL in PBS; Sigma-Aldrich Co. LLC) for 25 min at 37 °C. Then, the medium was removed, and the cells were fixed with 10% formalin for 15 min at room temperature. Cells were washed three times with PBS and incubated with 30 µL/per coverslip of Hoechst-33342 (1:500) for 10 min. After incubation, cells were washed three times with PBS. Coverslips were mounted on a drop of the fluoroshield mounting medium on a microscope slide, left to dry for 24 h, and then visualized in a Zeiss Axio Imager A1 microscope with the 40× objective.

Series [3] concerns PC-3 cells (androgen-independent prostatic cancer). The series is described as follows: MTT cell proliferation assay, PC-3 cells. The conditions noted are these: 72 h.
The test system of series [4] is N27 (rat dopaminergic neuronal cells). The series is described as follows: MTT cell proliferation assay, N27 cells. The conditions noted are these: 72 h, non-tumoral cells, read-out: Estimated IC50, N27.
In series [5] the test system is PNT1A (normal prostate cells). The series is described as follows: MTT cell proliferation assay, PNT1A cells. The following applies: 72 h, non-tumoral cells, read-out: Estimated IC50, PNT1A.
Series [6] relates to all cell lines (NHDF, PNT1A, N27, LNCaP, PC-3, MCF-7). The series is described as follows: MTT preliminary screening, all cell lines taken together. The conditions noted are these: 50 µM, 72 h. The protocol: LNCaP, PC-3, MCF-7, PNT1A, N27, and NHDF cells were obtained from the American Type Culture Collection (ATCC; Manassas, VA, USA) and were cultured in 75 cm^2 culture flasks at 37 °C in a humidified air incubator with 5% CO2. LNCaP, PC-3, PNT1A, and N27 cells, respectively, were cultured in RPMI 1640 medium (Sigma-Aldrich, Inc. St. Louis, MO, USA) with 10% fetal bovine serum (FBS; Sigma-Aldrich, Inc. St. Louis, MO, USA) and 1% of the antibiotic mixture of 10,000 U/mL penicillin G and […] streptomycin (Sp, Sigma-Aldrich, Inc. St. Louis, MO, USA). MCF-7 cells were cultured in DMEM medium (Sigma-Aldrich, Inc. St. Louis, MO, USA) supplemented with 10% fetal bovine serum (FBS; Sigma-Aldrich, Inc. St. Louis, MO, USA) and 1% antibiotic/antimycotic (10,000 U/mL penicillin G, […] streptomycin, and 25 µg/mL amphotericin B: Ab, Sigma-Aldrich, Inc. St. Louis, MO, USA). Finally, NHDF cells were cultured in RPMI 1640 medium supplemented with 10% FBS, 2 mM L-glutamine, 10 mM HEPES, 1 mM sodium pyruvate, and 1% of the antibiotic/antimycotic Ab, and these cells were used in passages 10th to 14th. For all cell types, the medium was renewed every 2 days until cells nearly reached the confluence state. When cells reach approximately 90–95% confluence, they are gently detached by trypsinization (trypsin-EDTA solution: 0.125 g/L of trypsin and 0.02 g/L of EDTA). Before each experiment, viable cells were counted in a Neubauer chamber by a trypan-blue exclusion assay and adequately diluted in the appropriate complete cell culture medium.
All tested compounds were dissolved in dimethyl sulfoxide (DMSO; Sigma-Aldrich, Inc. St. Louis, MO, USA) at a concentration of 10 mM and stored at 4 °C. From the mother-solutions, the diluted solutions of the compounds, in different concentrations, were prepared in the respective complete culture medium before each experiment.
After reaching a confluence state, cells were trypsinized and counted by the trypan-blue exclusion assay and then seeded with an initial density of 2 × 10^4 cells/mL in 96-well culture plates (Nunc, Apogent, Denmark) and left to adhere and grow for 48 h. Subsequently, the medium was removed, and the cells were treated with compound solutions (10 and 50 µM for preliminary studies and 0.01, 0.1, 1, 10, 50, and 100 µM for concentration-response studies) in complete culture medium for 72 h. 5-Fluorouracil (5-FU) was used as a positive control, and untreated cells were used as the negative control. Compounds leading to cell proliferation relative to control clearly below 50%, at 10 µM, or clearly below 25%, at 50 µM, in the screening studies were selected to concentration-response studies in tumoral cell lines. Each experiment was performed in quadruplicate and independently at least two times. The in vitro antiproliferative effects were evaluated by the MTT assay (Sigma-Aldrich, Inc. St. Louis, MO, USA). After the incubation period, the medium was removed, and 100 µL of phosphate buffer saline (PBS, NaCl 137 mM; KCl 2.7 mM; Na2HPO4 10 mM; and KH2PO4 1.8 mM in deionized water with a pH adjusted to 7.4) were used to wash the cells. Then, 100 µL of the MTT solution (5 mg/mL) was prepared in the appropriate serum-free medium and added to each well, followed by incubation for 4 h at 37 °C. Hereafter, the MTT containing medium was removed, and the formazan crystals were dissolved in DMSO. Then, the absorbance was measured at 570 nm using a xMarkTM microplate spectrophotometer from BIO-RAD Laboratories. Cell viability values were expressed as percentages relative to the negative control.

Series [7] concerns MCF-7 cells (estrogen-responsive breast cancer cells). The series is described as follows: MTT cell proliferation assay, MCF-7 cells. The following applies: 72 h.

In the case of “(E)-16-(2,3-Dichlorobenzylidene)-3-hydroxy-5α ,6α -epoxy-10,13-dimethyl-1,3,4,7,8,9,10,11,12,13,15,16-dodecahydro-2H-cyclopenta[α ]phenanthren-17(14H)-one [Compound 19]”, in series [1], the “cell distribution (nearest neighbor distance, NND)” value is on record as “more random distribution with nuclei more spaced”. The “PI-positive cells relative to the negative control” value in series [2] (MCF-7, 1 µM) was “no significant effect”; in series [2] (MCF-7, 10 µM) it was “significantly increase”. For the same substance, the “percentage of PI incorporation compared with the positive control (5-FU)” value in series [2] (MCF-7, 10 µM) is “about three times”. In addition, the IC50 is 19 µM in series [3] (MTT, tumoral cells, read-out: Estimated IC50, PC-3); 13.3 µM in series [4]; 12.8 µM in series [5]; 3.47 µM in series [7] (MTT, tumoral cells, read-out: Estimated IC50, MCF-7). In series [3] (PC-3, 50 µM), the “decrease on cell proliferation relative to the control” value was “higher than 75%”. Also, the relative cell proliferation in series [6] is given as not above 50%. Moreover, the “decrease in cell proliferation” value in series [7] (MCF-7, 10 µM) is reported as “around 75%”; in series [7] (MCF-7, 50 µM), approximately 100%. Also, the “cell proliferation relative to the control” value in series [7] (MCF-7, 50 µM) is on record as approximately 0%.
